Data on twelve compounds can be found in ChEMBL document CHEMBL1201862, “PubChem BioAssay data set” (2004).

Test systems include SW-620; SF-268; CAKI-1; IGROV-1; UACC-62; OVCAR-3; HT-29; DU-145; HOP-92; PC-3; HOP-62; A498; M14; K562; NCI-H522; OVCAR-8; HL-60; SK-MEL-2; MDA-MB-231; T47D.
Common to all, as to assay: NCI anticancer screen, dose series, 48 h

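Protocol summary: plate cells (96-well), add compound at 5 concentrations, incubate 48 h, interpolate endpoints linearly. GI50 marks 50% less growth.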 Activity calls are given as the source filed them. Cut-off read from the data, not from the text of the source: active = GI50 up to about 1.1 µM and inactive = higher. Bounds are passed on as bounds.

On to `CN(CCCNC(=O)c1cn(C)c2c1ccc1ccccc12)CCCNC(=O)c1cn(C)c2c1ccc1ccccc12`, for which the GI50 with SW-620 was 2.59 µM (inactive); with SF-268, 1.49 µM (inactive); with CAKI-1, 1.53 µM (inactive); in the experiment on IGROV-1, 1.11 µM (active); with UACC-62 it was 2.06 µM (inactive); with OVCAR-3, 1.51 µM (inactive). Besides, the GI50 in the experiment on HT-29 was 1.55 µM (inactive); in the experiment with DU-145, 1.55 µM (inactive); with HOP-92, 1.42 µM (inactive); with PC-3, 1.51 µM (inactive); with HOP-62 it was 1.61 µM (inactive); in the experiment on A498, 14.7 µM (inactive). Moreover, the GI50 with M14 is 1.58 µM (inactive).
For the compound `CC(C)C(=O)[C@@]1(C)SC[C@H]2CCN=C21`, the GI50 was > 100 µM (inactive) in the experiment on SW-620; > 100 µM (inactive) in the experiment with K562; 17 µM (inactive) with CAKI-1; > 100 µM (inactive) in the experiment on IGROV-1; 52 µM (inactive) in the experiment with NCI-H522; 41.4 µM (inactive) with UACC-62. The GI50 with OVCAR-3 was > 100 µM (inactive); in the experiment with OVCAR-8, > 100 µM (inactive); in the experiment with HT-29, > 100 µM (inactive); in the experiment on DU-145, > 100 µM (inactive); with HOP-92, 16.9 µM (inactive); with A498, 34.4 µM (inactive). Besides, the GI50 in the experiment on HL-60 is > 100 µM (inactive); with M14 it was 71 µM (inactive).
In the case of `CCOC(=O)CC1=N/C(=N/C(=N)N[N+](=O)[O-])SC1`, the GI50 in the experiment with SW-620, in the experiment with SK-MEL-2, with K562, with SF-268, in the experiment with CAKI-1 and in the experiment with IGROV-1 was > 100 µM (inactive) throughout. Also, the GI50 in the experiment on NCI-H522, in the experiment with UACC-62, in the experiment with OVCAR-3, in the experiment on OVCAR-8, in the experiment with HT-29 and in the experiment on HOP-92 was > 100 µM (inactive) in each case. For the same compound, the GI50 with HOP-62, with A498, in the experiment on HL-60 and in the experiment on M14 was > 100 µM (inactive) each time.
In the case of `N[C@H]1CCc2c1nc1c(c2-c2ccccc2)CC[C@@H]1N`, the GI50 in the experiment on SW-620 is 12.3 µM (inactive); in the experiment on SK-MEL-2 it was 18.5 µM (inactive); in the experiment with K562, 12.3 µM (inactive); in the experiment on SF-268 it was 18.1 µM (inactive); in the experiment with CAKI-1 it was 14.8 µM (inactive); in the experiment on IGROV-1, 14.7 µM (inactive). Also, the GI50 with NCI-H522 is 16.2 µM (inactive); in the experiment with OVCAR-8 it was 39.8 µM (inactive); in the experiment with HT-29, 11.9 µM (inactive); in the experiment on DU-145, 24.2 µM (inactive); in the experiment on HOP-92, 21.3 µM (inactive); in the experiment on PC-3, 15.3 µM (inactive). The GI50 with HOP-62 is 31.7 µM (inactive); with HL-60, 15.7 µM (inactive); in the experiment with MDA-MB-231, 18.3 µM (inactive); in the experiment on M14, 16.3 µM (inactive).
As to `CCOC(=O)c1cc(-c2ccc(OC)cc2)c([N+](=O)[O-])[nH]1`, the GI50 is > 10 µM (inactive) in the experiment on SW-620; > 10 µM (inactive) with SK-MEL-2; 1.95 µM (inactive) with K562; > 10 µM (inactive) in the experiment with SF-268; > 10 µM (inactive) in the experiment with CAKI-1; > 10 µM (inactive) with IGROV-1. In addition, the GI50 in the experiment with NCI-H522 was 9.82 µM (inactive); in the experiment with UACC-62 it was 7.78 µM (inactive); in the experiment on OVCAR-3, > 10 µM (inactive); in the experiment with OVCAR-8 it was > 10 µM (inactive); in the experiment with HT-29, > 10 µM (inactive); in the experiment on DU-145, > 10 µM (inactive). Besides, the GI50 was > 10 µM (inactive) with HOP-92; > 10 µM (inactive) with PC-3; > 10 µM (inactive) with HOP-62; > 10 µM (inactive) in the experiment with A498; > 10 µM (inactive) in the experiment on HL-60; 0.1 µM (active) in the experiment with MDA-MB-231. Also, in the experiment with M14, the GI50 was > 10 µM (inactive).
Turning to `Nc1nc2ncc(SCc3ccc(C(=O)NC(CCC(=O)O)C(=O)O)cc3)cc2c(=O)[nH]1` (configuration not stated), the GI50 with SW-620, in the experiment with SK-MEL-2, in the experiment on K562, with SF-268, in the experiment with CAKI-1 and in the experiment with IGROV-1 was > 100 µM (inactive) throughout. In addition, the GI50 with NCI-H522, in the experiment with UACC-62, in the experiment on OVCAR-3, with OVCAR-8, with HT-29 and in the experiment on DU-145 was > 100 µM (inactive) throughout. Further, the GI50 in the experiment with HOP-92, in the experiment on PC-3, in the experiment with HOP-62, in the experiment with A498, in the experiment on HL-60 and in the experiment on M14 was > 100 µM (inactive) throughout.
Take `CC(C)=CCC\C(C)=C/C=C/C(C)=C\C=C\C(C)=C/C=C/C=C(C)\C=C\C=C(C)/C=C/C=C(/C)CCC=C(C)C`: the GI50 with SW-620, in the experiment on SK-MEL-2, in the experiment on K562, with SF-268, with CAKI-1 and with IGROV-1 was > 100 µM (inactive) throughout. In addition, the GI50 in the experiment with UACC-62, in the experiment on OVCAR-3, in the experiment with OVCAR-8, in the experiment on HT-29, with DU-145 and in the experiment with HOP-92 was > 100 µM (inactive) each time. Further, the GI50 in the experiment with PC-3, with HOP-62, in the experiment on A498, with HL-60, in the experiment on MDA-MB-231 and with M14 was > 100 µM (inactive) each time.
On to `O=c1[nH]ncc2[nH]c3c4ccccc4ccc3c12`, for which the GI50 was 41.3 µM (inactive) in the experiment with SW-620; 45.7 µM (inactive) in the experiment with K562; 37.2 µM (inactive) in the experiment on SF-268; 48.2 µM (inactive) in the experiment on CAKI-1; 19 µM (inactive) in the experiment on NCI-H522; 29.6 µM (inactive) with OVCAR-3. Also, the GI50 in the experiment with OVCAR-8 is 51.3 µM (inactive); with HT-29 it was 39 µM (inactive); in the experiment on DU-145, > 100 µM (inactive); in the experiment with HOP-92 it was 14 µM (inactive); in the experiment on T47D it was 52.8 µM (inactive); with PC-3, 39.2 µM (inactive). The GI50 with HOP-62 is 40.6 µM (inactive); with HL-60, 80.7 µM (inactive); in the experiment with M14, 94.6 µM (inactive).
Consider `COC(=O)c1nc(Cl)nc(Cl)c1Cl`, for which the GI50 in the experiment with SW-620 is 16.2 µM (inactive); in the experiment on K562, 12.2 µM (inactive); with SF-268, 19.1 µM (inactive); in the experiment on CAKI-1 it was 18.2 µM (inactive); with IGROV-1 it was 22.8 µM (inactive); in the experiment on NCI-H522, 19.3 µM (inactive). Further, the GI50 in the experiment on UACC-62 is > 10 µM (inactive); in the experiment on OVCAR-3, 2.02 µM (inactive); with OVCAR-8 it was 21 µM (inactive); in the experiment with HT-29, 22.5 µM (inactive); in the experiment on DU-145, 70.3 µM (inactive); in the experiment with HOP-92, 19.4 µM (inactive). Moreover, the GI50 with T47D was 24.3 µM (inactive); in the experiment with PC-3, 14.4 µM (inactive); in the experiment on HOP-62, 30.2 µM (inactive); in the experiment with MDA-MB-231 it was 17.6 µM (inactive); in the experiment with M14 it was 20.7 µM (inactive).
`CC(=O)O[C@H]1C(=O)[C@@]2(C)C(C(OC(=O)c3ccccc3)[C@]3(O)CC(OC(=O)C(O)C(NC(=O)c4ccccc4)c4cccc(Cl)c4)C(C)=C1C3(C)C)[C@]1(OC(C)=O)CO[C@@H]1C[C@@H]2O` (some centres not stated): the GI50 in the experiment on SW-620 was 6.47 µM (inactive); in the experiment on SK-MEL-2 it was 3.39 µM (inactive); in the experiment on K562, 4.94 µM (inactive); in the experiment with SF-268, 7.26 µM (inactive); with CAKI-1, > 10 µM (inactive); in the experiment with IGROV-1, 3.88 µM (inactive). The GI50 in the experiment on NCI-H522 was 3.18 µM (inactive); with UACC-62, 2.33 µM (inactive); with OVCAR-3 it was 4.18 µM (inactive); in the experiment with OVCAR-8, 5.92 µM (inactive); with HT-29, 2.46 µM (inactive); with DU-145 it was 3.57 µM (inactive). Moreover, the GI50 in the experiment with T47D is 8.15 µM (inactive); with PC-3, 7.11 µM (inactive); in the experiment on HOP-62, 7.01 µM (inactive); in the experiment on HL-60, 1.38 µM (inactive); in the experiment with MDA-MB-231 it was > 10 µM (inactive); in the experiment with M14, > 10 µM (inactive).
Consider `O=C(Oc1cccc(Cl)c1)c1cc2cc(CCl)ccc2oc1=O`, for which the GI50 in the experiment with SW-620 is > 100 µM (inactive); with SK-MEL-2, 12.6 µM (inactive); in the experiment on K562, 41.4 µM (inactive); with SF-268, 80 µM (inactive); in the experiment with CAKI-1, 60.7 µM (inactive); with IGROV-1, 39.2 µM (inactive). Further, the GI50 in the experiment with NCI-H522 is 15.3 µM (inactive); in the experiment with UACC-62, 14.3 µM (inactive); in the experiment with OVCAR-3 it was 39.8 µM (inactive); in the experiment with OVCAR-8 it was > 100 µM (inactive); in the experiment with HT-29 it was 30.5 µM (inactive); in the experiment with DU-145 it was 22.8 µM (inactive). Further, the GI50 with HOP-92 is 19.8 µM (inactive); in the experiment on T47D, 31.5 µM (inactive); with PC-3 it was 26.1 µM (inactive); with HOP-62, 42.9 µM (inactive); in the experiment on HL-60, 19 µM (inactive); in the experiment on MDA-MB-231, > 100 µM (inactive). Further, the GI50 in the experiment with M14 was 14.6 µM (inactive).
Regarding `C1CN1c1nc(N2CC2)nc(N2CC2)n1`, the GI50 in the experiment on SW-620 was 11 µM (inactive); with SK-MEL-2, 17.7 µM (inactive); with K562, 10.4 µM (inactive); with SF-268, 2.99 µM (inactive); in the experiment with CAKI-1, 2.19 µM (inactive); in the experiment on IGROV-1, 14.2 µM (inactive). Further, the GI50 is 5.21 µM (inactive) in the experiment with NCI-H522; 1.84 µM (inactive) with UACC-62; 16 µM (inactive) in the experiment on OVCAR-3; 7.55 µM (inactive) in the experiment on OVCAR-8; 13.2 µM (inactive) in the experiment on HT-29; 2.78 µM (inactive) in the experiment on DU-145. The GI50 with HOP-92 is 10 µM (inactive); in the experiment on PC-3, 12.3 µM (inactive); with HOP-62, 1.97 µM (inactive); in the experiment with A498, 9.95 µM (inactive); with HL-60, 0.649 µM (active); with MDA-MB-231, 20.2 µM (inactive). The GI50 in the experiment with M14 is 4.84 µM (inactive).
